According to patent US20050282786A1, “Method for reducing c-rective protein levels with non-antibacterial tetracycline formulations” (priority 2002, published 2005):
Several values for one entry are separate records, joined by “and”; a condition that tells them apart may be missing. Equal entries are not always repeated. Structures can show the parent of a compound that is named as a salt. One block for each molecule: values may come before it.

What was measured:
[1] = CMT-3 serum levels in humans; assay type: in vivo, human; settings: dose of about 10 to about 20 mg/day
Protocol: Non-antibacterial tetracycline compounds can be used in higher amounts than antibacterial tetracyclines, while avoiding the indiscriminate killing of bacteria, and the emergence of resistant bacteria. For example, 6-demethyl-6-deoxy-4-dedimethylaminotetracycline (CMT-3) may be administered in doses of about 10 to about 200 mg/day, or in amounts that result in serum levels in humans of about 1.0 μg/ml to about 10 μg/ml. For example, a dose of about 10 to about 20 mg/day produces serum levels in humans of about 1.0 μg/ml.

C-reactive protein (CRP) = assay: Prospective randomized six-month study of low-dose doxycycline versus placebo: C-reactive protein levels in patients after acute coronary syndrome; assay type: in vivo, human; settings: for 6-Month CRP level: after six months of therapy, P<0.05 vs baseline; for 6-Month CRP level / Baseline CRP level: mean ± S.E.M.; for Reduction Due To Treatment (CRP): six months vs baseline; for Baseline CRP level / Baseline CRP: study entry; for Six Month CRP: six months
Protocol: A prospective, randomized study was conducted over six (6) months to investigate the effectiveness of low-dose doxycycline (LDD) versus placebo, in the prevention of subsequent plaque rupture events in patients enrolled after an initial acute coronary syndrome.
Biochemical markers of inflammation were assessed at study entry and after six (6) months of therapy in a subset of patients. A total of thirty (30) patients completed the study of whom thirteen (13) were randomized to placebo and seventeen (17) to LDD. There were no significant differences in age, male gender, hypertension, diabetes, smoking, previous cardiac history, extent of coronary disease, presentation with acute myocardial infarction or unstable angina, or percutaneous coronary intervention between LDD and placebo treated patients.
At six months clinical follow-up, there was no difference in the composite endpoint of cardiovascular death, myocardial infarction or troponin-positive unstable angina in LDD compared to placebo treated patients. […] In placebo-treated patients, CRP was 5.2 μg/ml at study entry and 4.9 μg/ml at six months (P=not significant (n.s.)).
Patients with higher baseline CRP levels were reduced by 58% from 7.2 μg/ml to 3.0 μg/ml (P<0.001). In placebo-treated patients with higher baseline CRP, CRP levels were decreased by 23% (7.1 μg/ml to 5.5 μg/ml).

[2] = single dose of two 100 mg tablets, adult human; cited from earlier work
[3] = 250 mg every six hours over a twenty-four hour period; cited from earlier work
[4] = all LDD patients (n = 17), listed as Low-Dose Doxycycline
[5] = patients with higher CRP (>5 μg/ml)
[6] = patients with lower baseline CRP (≦5 μg/ml)

serum levels in humans [1]: about 1.0 μg/ml
SMILES: NC(=O)C1=C(O)CC2CC3Cc4cccc(O)c4C(=O)C3=C(O)C2(O)C1=O (stereo not drawn) [CMT-3, 4-dedimethylaminosancycline]

SMILES: C[C@H]1c2cccc(O)c2C(=O)C2=C(O)[C@]3(O)C(=O)C(C(N)=O)=C(O)[C@@H](N(C)C)[C@@H]3[C@@H](O)[C@@H]21 [LDD, doxycycline]
6-Month CRP level (C-reactive protein (CRP); all LDD patients (n = 17)): 2.6 µg/mL
6-Month CRP level (C-reactive protein (CRP); [4]): 2.6 ± 0.4 µg/mL
Reduction Due To Treatment (CRP) (C-reactive protein (CRP); all LDD patients (n = 17)): 46%
Reduction Due To Treatment (CRP) (C-reactive protein (CRP); [4]): 45%
Baseline CRP level (C-reactive protein (CRP); all LDD patients (n = 17)): 4.8 µg/mL
Baseline CRP level (C-reactive protein (CRP); [4]): 4.8 ± 0.6 µg/mL
Reduction Due To Treatment (CRP) (C-reactive protein (CRP); [5]): 58%
Six Month CRP (C-reactive protein (CRP); patients with higher CRP (>5 μg/ml), P<0.001 vs baseline): 3.0 μg/ml and 3.0 ± 0.7^a μg/ml
Baseline CRP (C-reactive protein (CRP); [5]): 7.2 µg/mL and 7.2 ± 0.6 µg/mL
Reduction Due To Treatment (CRP) (C-reactive protein (CRP); [6]): 23%
Six Month CRP (C-reactive protein (CRP); patients with lower baseline CRP (≦5 μg/ml), n.s. vs baseline): 2.3 μg/ml and 2.3 ± 0.5^b μg/ml
Baseline CRP (C-reactive protein (CRP); [6]): 3.0 µg/mL and 3.0 ± 0.4 µg/mL

SMILES: CN(C)c1ccc(O)c2c1C[C@H]1C[C@H]3[C@H](N(C)C)C(O)=C(C(N)=O)C(=O)[C@@]3(O)C(O)=C1C2=O [minocycline HCl]
minocycline serum level, average [2]: 2.24 µg/mL

SMILES: CN(C)[C@@H]1C(O)=C(C(N)=O)C(=O)[C@@]2(O)C(O)=C3C(=O)c4c(O)cccc4[C@@](C)(O)[C@H]3C[C@@H]12 [tetracycline HCl]
peak plasma concentration [3]: approximately 3 μg/ml
